GC retention time and collision cross section data for 13 compounds are collected here from the supplement of paper PMC11923942.

A short description of series [1]: GC retention time (DB-5MS, GC-APCI); higher = later elution. On the procedure:
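Standards of hydrophobic organic contaminants were analysed by GC-APCI (positive mode, dry or wet source conditions) coupled to cyclic ion mobility-QTOF MS. CCS was measured for the base ion (sometimes a fragment ion) in N2 drift gas (one-pass mode, calibrated with a Waters 22-compound mix). 5 mL/min).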

Series [2] in a line: collision cross section (N2, base ion); higher = larger ion cross section. A digest of the protocol: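 Collision cross section was measured for the base ion, or at times a fragment, with Progenesis QI used for lockmass correction and peak picking. The hydrophobic organic contaminant standards passed through an Agilent 8890 GC with a DB-5MS UI column, then through a positive-mode atmospheric pressure chemical ionization source run dry or wet into a Waters cyclic ion mobility time-of-flight instrument in high-definition MSE mode. Ions were separated in one pass with N2 as drift gas, and the mobility scale was calibrated with a calibrant mix.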

Take `c1ccc2c(c1)-c1cccc3c1c-2cc1ccccc13` [Benzo(b)fluoranthene] (APCI source condition: Dry, base ion: M+.): the GC retention time in series [1] came to 24.2 min. This compound also had a collision cross section in series [2] of 145.46 Å².
The compound `ClC1=C(Cl)[C@]2(Cl)[C@@H]3[C@@H]4C[C@@H]([C@H]5O[C@@H]45)[C@@H]3[C@@]1(Cl)C2(Cl)Cl` [Dieldrin] (APCI source condition: Dry, base ion: M+.) had a GC retention time in series [1] of 19.8 min. For the same compound, the collision cross section in series [2] is given as 151.16 Å².
The corresponding values for `c1ccc2c(c1)cc1ccc3cccc4ccc2c1c34` [Benzo(a)pyrene] (APCI source condition: Dry, base ion: M+.) are 24.8 min and 143.28 Å².
For `Brc1cccc(Oc2c(Br)c(Br)c(Br)c(Br)c2Br)c1Br` [PBDE 173] (APCI source condition: Dry, base ion: M+.), in that order: 30.2 min and 185.08 Å².
The corresponding values for `Clc1ccc(Cl)c(Cl)c1Cl` [1,2,3,4-Tetrachlorobenzene] (APCI source condition: Dry, base ion: M+.) are 9.99 min and 135.67 Å².
Turning to `c1cc2cccc3c4cccc5cccc(c(c1)c23)c54` [Perylene] (APCI source condition: Dry, base ion: M+.), in series [1], the GC retention time is 25 min. Moreover, in series [2], the collision cross section came out at 143.02 Å².
`ClC1C(Cl)C(Cl)C(Cl)C(Cl)C1Cl` (stereo not drawn) [α-Hexachlorocyclohexane] (APCI source condition: Dry, base ion: [M-H2Cl3]+): the GC retention time in series [1] came out at 14.5 min. This compound also displayed a collision cross section in series [2] of 137.25 Å².
`C=CCOc1c(Br)cc(Br)cc1Br` [1,3,5-Tribromo-2-prop-2-enoxybenzene] (APCI source condition: Dry, base ion: [M-Br]+) had a GC retention time in series [1] of 15.2 min. The same compound showed a collision cross section in series [2] of 136.27 Å².
For `Clc1ccc(-c2ccc(Cl)c(Cl)c2Cl)c(Cl)c1Cl` [PCB 128] (APCI source condition: Dry, base ion: M+.), in that order: 21.3 min and 158.12 Å².
The corresponding values for `ClC1=C(Cl)C2(Cl)C3C(Cl)C=CC3C1(Cl)C2(Cl)Cl` (stereo unspecified) [Heptachlor] (APCI source condition: Dry, base ion: [M-H]+) are 16.7 min and 157.41 Å².
In the case of `Clc1ccc(C(c2ccccc2Cl)C(Cl)(Cl)Cl)cc1` (stereo unspecified) [2,4'-DDT] (APCI source condition: Dry, base ion: [M-CCl3]+), the GC retention time in series [1] was found to be 20.2 min. Further, the collision cross section in series [2] came out at 140.36 Å².
For `Clc1ccc(Cl)c(-c2c(Cl)cccc2Cl)c1` [PCB 53] (APCI source condition: Dry, base ion: M+.), in that order: 16.6 min and 144.4 Å².
For `CCCCC(CC)COC(=O)c1cc(Br)c(Br)c(Br)c1Br` (stereo unspecified) [2-Ethylhexyl-2,3,4,5-tetrabromobenzoate] (APCI source condition: Dry, base ion: C7H3Br4O2+), in that order: 24.2 min and 141.48 Å².
